This data set is described as follows: gradient 5% acetonitrile 3 min, to 50% in 2 min, to 85% in 15 min, held 3 min, 100 µL/min. The settings on record: column: Zorbax Extend-C18 2.1 x 50 mm; eluents: water / acetonitrile, 0.1% formic acid. In outline: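 The mobile phases were water and acetonitrile, each with 0.1% formic acid, pumped at 100 μL/min through a Zorbax Extend-C18 column (2.1 × 50 mm, 1.8 μm). Pure standards were injected as mixtures of ~100 molecules and detected by a quadrupole time-of-flight mass spectrometer in positive and negative ionization mode. Retention time came from computationally picked adduct peaks, each inspected by hand.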
Consider `COc1ccc(-c2nc(NC3CCCCCC3)c3ccccc3n2)cc1`, for which the RP-LC retention time was found to be 934 s.
The figure for `Cc1nc(-c2ccc3c(c2)n(CC(=O)NC2CCCCCCC2)c(=O)n3C(C)C)no1` is 945 s.
The figure for `O=C(C1CCCN(c2nccnc2Sc2ccccc2)C1)N1CCOCC1` (stereo unspecified) is 850 s; for `CC1CCN(C(=O)C2=NN(C)c3ccccc3S2(=O)=O)CC1` it is 799 s.
The value for `Cc1ccc(C)c(CNS(=O)(=O)c2cc(-c3csc(C)n3)sc2C)c1` was 1100 s; that for `CCOc1ccc(CNS(=O)(=O)c2cc(-c3cnn4c(C)cc(C)nc34)ccc2C)cc1OCC` was 1040 s; that for `Cc1ccc(S(=O)(=O)N2C[C@H]3CN(C(=O)NCCc4ccccc4)C[C@@H](C2)O3)cc1` was 834 s.
`Cc1cccc(N2CCN(C(=O)c3ccnc(N4CCCC4)n3)CC2)c1` gave an RP-LC retention time of 894 s.
The figure for `CN(C)c1nc2ncn3c(=O)n(CC(=O)NCCc4ccc(Cl)cc4)nc3c2s1` is 706 s.
The figure for `Cc1cccc(CN2CCCn3nc(C(=O)NC4CCCC4)cc3C2=O)c1` is 879 s.
As for `CCCN1C(=O)COc2cc(-c3noc(C(=O)NCCCc4ccccc4)n3)ccc21`, the RP-LC retention time was determined as 1090 s.
The value for `O=C(NCc1ccc(F)cc1)N1CCC(c2noc(-c3ccccn3)n2)C1` (stereo unspecified) was 813 s; that for `O=C(c1cccs1)N1CCCCC1c1nc(-c2ccncc2)no1` (stereo unspecified) was 818 s; that for `CNC(=O)C1CCN(C(=O)Nc2ccc(NC(=O)Nc3ccc(C)c(C)c3)cc2)CC1` was 700 s.
The value for `CCCNC(=O)c1cc2sccc2n1Cc1ccc(C)cc1` was 1060 s; that for `Cc1ccc(Nc2c(-c3ccc(N(C)C)cc3)nc3ccccn23)cc1` was 743 s.
The figure for `CC(=O)Nc1ccc(-c2noc(C3CCN(C(=O)Cc4c[nH]c5ccccc45)CC3)n2)cc1` is 761 s; for `CC(C)CCNC(=O)CCCn1c(=O)c2cccn2c2ccccc21` it is 859 s; for `Cc1noc(C2CN(C(=O)NCc3cccc(F)c3)CC23CCOCC3)n1` (stereo unspecified) it is 706 s.
`O=C(Nc1ccc(F)cc1)C1CCN(c2cc(N3CCCCC3)ncn2)CC1` showed an RP-LC retention time of 696 s.
The value for `O=C1CCCCC(C(=O)N2CCc3ccccc32)N1` (stereo unspecified) was 726 s; that for `COCc1noc([C@@H]2CN(C(=O)C3CC=CCC3)C[C@H]2C(N)=O)n1` (stereo partly specified) was 610 s.
`Cc1[nH]c(=O)[nH]c(=O)c1CC(=O)NCCc1cccs1` gave an RP-LC retention time of 574 s.
The figure for `Cc1ccc2[nH]cc(CCN3CC(C(=O)N4CCc5ccccc5C4)CC3=O)c2c1` (stereo unspecified) is 698 s; for `Cc1cccc(C)c1NC(=O)Cn1nc(N2CCOCC2)c2ccccc2c1=O` it is 744 s; for `Cc1sc(-c2cc(C(F)(F)F)on2)cc1S(=O)(=O)N1CCc2ccccc21` it is 1270 s.
The value for `COc1cccc(NC(=O)C2CCN(C(=O)C3Sc4ccccc4NC3=O)CC2)c1` (stereo unspecified) was 752 s.
The value for `Cc1cc(C(=O)N2CCCn3cc(-c4ccccc4F)nc32)nn1C` was 656 s.
As to `Cc1ccsc1CN1CCN(c2cnn3cnnc3c2)CC1`, the RP-LC retention time came to 547 s.
The figure for `Cc1ccsc1C(=O)Nc1cccn2c(C)nnc12` is 670 s.
Regarding `COc1cccc(-c2noc(Cn3c(=O)n(-c4cccc(F)c4)c(=O)c4sccc43)n2)c1`, the RP-LC retention time worked out at 957 s.
For `Cn1ncc2c3ccccc3n(CC(=O)NCc3ccc4c(c3)OCO4)c2c1=O`, the RP-LC retention time stood at 792 s.
The value for `O=C(Cn1nc(N2CCOCC2)c2ccccc2c1=O)Nc1ccccc1C(F)(F)F` was 804 s.
`CC1=C(c2ccc(C)cc2)S(=O)(=O)N=C1N1CCCN(C(=O)CCC(C)C)CC1` registered an RP-LC retention time of 888 s.
The figure for `CCNc1cc(N2CCC(CCC(=O)NCCN3CCc4ccccc4C3)CC2)ncn1` is 572 s; for `CC(C)C(=O)NC(c1ccc(F)cc1)c1nnc(-c2ccccc2)o1` (stereo unspecified) it is 856 s; for `O=C1COc2cc(S(=O)(=O)N3CCCC3C(=O)NCCN3CCCC3)c(Cl)cc2N1` (stereo unspecified) it is 567 s.
The value for `CCCC(=O)N1CCC(C(=O)Nc2ccc(OCC)cc2)CC1` was 718 s.
As for `CC(C)c1noc(C2CCCCN2Cc2nc(-c3cccnc3)no2)n1` (stereo unspecified), the RP-LC retention time is 832 s.
The figure for `O=C(Nc1nc(-c2ccncc2)cs1)C1CCCCC1` is 588 s; for `COC(=O)C1=CN(C2CC2)c2cc(N3CCN(c4ccc(C(C)=O)cc4)CC3)c(F)cc2S1(=O)=O` it is 906 s.
The figure for `CCOc1cccc(CNC(=O)C2CCCN(c3ncnc4c3oc3ccccc34)C2)c1` (stereo unspecified) is 782 s; for `CCCC(=O)N1CCc2c([nH]c3ccccc23)C12C(=O)Nc1ccc(Br)cc12` (stereo unspecified) it is 924 s; for `CCOC(=O)c1cnc2nc(C)ccc2c1Nc1cccc(Cl)c1` it is 752 s.
The value for `CC(C)CN1CCn2cc(S(=O)(=O)N3CCN(c4ccccc4)CC3)cc2C1=O` was 921 s.
Compound `COc1ccccc1OC(C)C(=O)N1CCN(c2cc(C)n3cnnc3n2)CC1` (stereo unspecified) showed an RP-LC retention time of 599 s.
The figure for `O=c1c2cc(-c3ccc(F)cc3)nn2ccn1CC(O)c1ccc2c(c1)OCO2` (stereo unspecified) is 864 s; for `CCOc1ccc(Nc2ncccc2S(N)(=O)=O)cc1` it is 773 s; for `O=C(CN1C(=O)C2CCCCN2c2ccc(C(=O)N3CCCC3)cc21)Nc1ccncc1` (stereo unspecified) it is 622 s.
The figure for `O=C(Cc1cccs1)Nc1nnc(SCc2nnc(-c3ccc4c(c3)OCO4)o2)s1` is 814 s.
The figure for `CO[C@H]1CN(C(C)C)[C@H]1C1CCN(C(=O)C(C)C)CC1` is 557 s; for `CCCCN1C(=O)C(CC(=O)NC(C)C)Sc2ncccc21` (stereo unspecified) it is 742 s.
`CCc1nnc(-c2cn(CC(=O)NC3CCCCCC3)c3ccccc23)o1` came in with an RP-LC retention time of 790 s.
The figure for `COc1ccc(-c2nsc(SCC(=O)Nc3cc(C)on3)n2)cc1` is 860 s; for `COc1ccc(NC(=O)c2cn(-c3cc(N4CCCC4)ncn3)cn2)c(OC)c1` it is 891 s; for `CCN1CCN(C(=O)C2CCN(c3nc4cccnc4s3)CC2)CC1` it is 570 s.
The value for `CCc1ccc(C2=C(C)C(N3CCCN(C(=O)c4ccccc4)CC3)=NS2(=O)=O)cc1` was 896 s; that for `O=C(CN1C(=O)C2CCCCN2c2ccc(S(=O)(=O)N3CCCCC3)cc21)NC1CCCCC1` (stereo unspecified) was 1030 s.
`COc1ccccc1-c1nc(-c2cccc(-c3ccnn3C)c2)no1` showed an RP-LC retention time of 1020 s.
`CC1CCN(c2ncc3c(n2)CCC(C(=O)NCc2ccc(OC(C)C)cc2)C3)CC1` (stereo unspecified) showed an RP-LC retention time of 908 s.
The figure for `O=C(NCC(=O)N1CCOCC1)c1c[nH]c2ccccc12` is 593 s.
The figure for `Cc1nccn1CC(=O)N1CCCn2cc(-c3ccccc3F)nc21` is 644 s; for `COc1cc(OC)cc(-c2nc(-c3cn(-c4ccc(F)cc4)nn3)no2)c1` it is 809 s.
The figure for `O=S(=O)(NCCc1ccccc1)c1ccccc1-c1nc(-c2ccccc2)no1` is 1210 s; for `Cc1ccc(Nc2c(-c3cccc(Cl)c3)nc3ccccn23)cc1` it is 780 s; for `CC1CCN(C2=NCCN2C(=O)c2c(F)cccc2F)CC1` it is 660 s.
As for `CCc1nccn1Cc1nc(-c2cccc(Cl)c2)no1`, the RP-LC retention time is 667 s.
In turn, `CCCc1nc(-c2ccccc2)oc1CC(=O)N1CCN(c2ccccc2F)CC1` yielded an RP-LC retention time of 1090 s.
The figure for `O=c1ccc(N2CCCC(NS(=O)(=O)Cc3ccccc3)C2)n[nH]1` (stereo unspecified) is 654 s; for `Cc1cc(N2CCN(C)CC2)nc2ccc(NC(=S)N3CCN(c4ccc(Cl)cc4)CC3)cc12` it is 645 s.
Compound `CCOC(=O)c1ccccc1NC(=O)CSc1nnc2c3cc(-c4ccc(C)cc4)nn3ccn12` came in with an RP-LC retention time of 1080 s.
The value for `Cn1c(-c2cccc(C(=O)NCc3cc(F)cc(F)c3)c2)nc2cccnc21` was 762 s; that for `Cc1ccc(NC(=O)N2CC(c3nc(CCOCC4CCCC4)no3)C2)cc1C` was 1060 s; that for `CC(C(=O)N1CCC(N2CCc3ccccc32)CC1)c1ccccc1` (stereo unspecified) was 1010 s.
The value for `CCOC(=O)c1cccc(NC(=O)c2cc(C)nn2-c2ccccc2)c1` was 936 s; that for `CC(C)n1c(=O)sc2cc(S(=O)(=O)N3CCC(C(=O)NC4CCCC4)CC3)ccc21` was 896 s; that for `C=CCN1CC[C@]23CCCCC2[C@H]1Cc1ccc(O)cc13` (stereo partly specified) was 691 s.
The figure for `COc1ccc(NC(=O)c2ccc(-c3ccsc3)nc2)cc1` is 862 s.
In the case of `CC(=O)Oc1ccccc1C(=O)N1CCCc2ccccc21`, the RP-LC retention time was 868 s.
`CCS(=O)(=O)N1CC(=O)N(Cc2ccc(Cl)cc2)C(C)(C(=O)NC2CCCCCCC2)C1` (stereo unspecified) showed an RP-LC retention time of 1040 s.
Compound `CC(C)CN(CC(C)C)C(=O)CCCN1C(=O)c2ccccc2C1=O` yielded an RP-LC retention time of 947 s.
